Reference: patent US20240391896A1 (Nantong Jutai Biotech Co., Ltd., priority 2021, published 2024)
Where two headings read alike, the source gives them in different places.

Key:
[1] = test system: Human AXIN2; experiment: qPCR of AXIN2 expression in HCT116 cells; type: cell-based; conditions: HCT-116, Table 2, HCT116 cells, AXIN2 vs β-actin, 24 hours
Procedure: Cells were digesting, counting, and plating cells in 24-well plates (flat bottom, clear), with 3×10^5 cells/500 ul DMEM (10% FBS) per well. • 2. Observing the state of cells on the next day, and start dosing after cell attachment is intact
Diluting 514 with DMEM (2% FBS) by gradient dilution with concentrations of 20 μM, 10 μM, 5 μM, 2.5 μM, 1.25 μM, 0.625 μM, 0.3125 μM, 0.15625 μM, 0 μM (equal volume DMSO)
Adding 500 μl of the above different concentrations of 514 to each well, and setting a single well for each concentration gradient except three repeat wells for the 0 μM concentration (double wells for qPCR). • 3. Incubating at 37° C. for 24 hours • 4. Discarding the supernatant, washing once with PBS, and adding trizol at 500/well • 5. RNA extraction (step omitted) • 6. Reverse transcription (step omitted, according to the kit) • 7. qPCR (step omitted, following the kit steps)
• 8. calculation of inhibition rate

[2] = test system: HCT116 cells; experiment: CCK8 cell viability assay in HCT116 cells; type: cell-based; conditions: Homo sapiens, HCT-116; Table 2, HCT116 cells, 24 hours
Procedure: • 1. HCT116 cell plating
Digesting, counting, and plating the cells in 96-well plates (flat bottom, transparent) with 10,000 cells/100 ul DMEM (10% FBS) per well; • 2. Observing the state of cells on the next day, and start dosing after cell attachment is intact; • 3. diluting 514 with DMEM (2% FBS) by gradient dilution with concentrations of 20 μM, 10 μM, 5 μM, 2.5 μM, 1.25 μM, 0.625 μM, 0.3125 μM, 0.15625 μM, 0 μM (equal volume of DMSO); • 4. Adding 100 μl of the above different concentrations of 514 to each well, and making two repeat wells for each concentration gradient; leaving three blank wells (only adding DMEM 2% FBS culture medium without cells). • 5. Culturing at 37° C. for 24 hours; • 6. Adding 10 μl CCK-8 enhanced solution to each well: due to the small amount added of CCK-8 in each well, it may cause errors resulting from the reagent staining on the wall of the well. It is recommended to gently tap the culture plate after adding the reagent to help mixing; • 7. Incubating in the incubator for 0.5-4 hours: the amount of Formazan formed is not the same for different cell types, in most cases, incubation for 1 hour is enough. If the color development is not enough, incubation can be continued to determine optimal conditions. • 8. Measuring the absorbance at 450 nm and 600 nm (excluding the interference of the background color of the reagent and the absorbance value of the well plate itself); • 9. Using OD450 nm-OD600 nm for the final absorbance, and calculating the inhibition rate:
[formula] • As: absorbance of experimental wells (medium containing cells, CCK-8, drug to be tested); • Ac: absorbance of control wells (medium containing cells, CCK-8, and no drug to be tested); • Ab: absorbance of blank wells (medium without cells and drug to be tested, CCK-8). (3) qPCR • 1. HCT116 cell plating

[3] = molecular target: T1, BCL9/β-catenin (Homo sapiens, UniProt P35222); experiment: FP (BCL-9 avidity) fluorescence polarization competition assay with beta-catenin and FAP-Bcl9 tracer; type: binding
T1 sequence (P35222 1-781): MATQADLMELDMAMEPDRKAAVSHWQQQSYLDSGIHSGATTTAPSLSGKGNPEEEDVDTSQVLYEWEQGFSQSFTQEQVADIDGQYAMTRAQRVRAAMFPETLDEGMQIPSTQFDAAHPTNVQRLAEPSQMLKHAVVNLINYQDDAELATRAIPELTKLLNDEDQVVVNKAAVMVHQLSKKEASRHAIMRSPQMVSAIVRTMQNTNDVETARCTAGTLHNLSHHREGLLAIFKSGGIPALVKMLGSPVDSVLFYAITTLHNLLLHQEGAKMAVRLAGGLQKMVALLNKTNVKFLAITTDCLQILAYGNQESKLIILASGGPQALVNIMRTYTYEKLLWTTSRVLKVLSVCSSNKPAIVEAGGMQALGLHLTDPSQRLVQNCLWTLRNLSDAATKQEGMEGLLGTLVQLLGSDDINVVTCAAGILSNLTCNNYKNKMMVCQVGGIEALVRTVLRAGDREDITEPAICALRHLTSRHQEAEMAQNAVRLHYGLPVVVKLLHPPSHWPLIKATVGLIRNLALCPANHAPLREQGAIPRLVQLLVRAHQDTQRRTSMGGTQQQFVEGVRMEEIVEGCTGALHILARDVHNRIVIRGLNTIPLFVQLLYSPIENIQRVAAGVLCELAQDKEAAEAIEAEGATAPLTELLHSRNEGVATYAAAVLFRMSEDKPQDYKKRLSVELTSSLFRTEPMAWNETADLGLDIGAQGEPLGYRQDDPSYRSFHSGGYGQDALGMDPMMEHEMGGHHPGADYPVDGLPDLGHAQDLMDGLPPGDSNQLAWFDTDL
Procedure: Incubating for 2 hours on a horizontal shaker. Then adding 2 nM FAP-Bcl9 tracer to each well, and after incubation for 2H on a horizontal shaker, measuring the […].

[4] = Table 1.1, compounds 1-6, read-out: BCL-9 avidity FP IC50
[5] = Table 2, FP (BCL-9 affinity), read-out: FP
[6] = Table 1.2, compounds 7-16, read-out: BCL-9 avidity FP IC50

IC50 [1] [µM]	IC50 [2] [µM]	IC50 [3, 4] [µM]	IC50 [3, 5] [µM]	IC50 [3, 6] [µM]	IC50 ([3]; Table 1.3, compounds 15-20, read-out: BCL-9 avidity FP IC50) [µM]	Structure (SMILES)
10 to 20	10 to 20	2.76	2.76	–	–	CC(C)(Oc1cccc(N2CC(C(=O)N(Cc3ccc(-c4c[nH]c5ncccc45)cc3)C3CC3)CC(c3ccccc3)C2)c1)C(=O)N1CCNCC1 (racemic) [Compound 3, N-cyclopropyl-1-(3-{[2-methyl-1-oxo-1-(piperazin-1-yl)propan-2-yl]oxy}phenyl)-5-phenyl-N-[(4-{1H-pyrrolo[2,3-b]pyridin-3-yl}phenyl)methyl]piperidine-3-carboxamide]
10 to 50	10 to 50	–	10 to 50	–	–	CC(C)C1CC=C(c2ccc(CN(C(=O)C3CC(c4ccccc4)CN(c4cccc(OC(C)(C)C(=O)N5CCNCC5)c4)C3)C3CC3)cc2)CC1 (racemic) [Compound 4, N-cyclopropyl-1-(3-{[2-methyl-1-oxo-1-(piperazin-1-yl)propan-2-yl]oxy}phenyl)-5-phenyl-N-({4-[4-(propan-2-yl)cyclohex-1-en-1-yl]phenyl}methyl)piperidine-3-carboxamide]
10 to 20	10 to 20	2.25	6.2	–	–	CC(C)(Oc1cccc(N2CC(C(=O)N(Cc3ccc(-c4ccccc4)cc3)C3CC3)CC(c3ccccc3)C2)c1)C(=O)N1CCNCC1 (racemic) [Compound 5, N-cyclopropyl-1-(3-{[2-methyl-1-oxo-1-(piperazin-1-yl)propan-2-yl]oxy}phenyl)-5-phenyl-N-[(4-phenylphenyl)methyl]piperidine-3-carboxamide]
10 to 20	10 to 20	7.75	7.75	–	–	CC(C)(Oc1cccc(N2CC(C(=O)N(Cc3ccc(C4=CCCCC4)cc3)C3CC3)CC(c3ccccc3)C2)c1)C(=O)N1CCNCC1 (racemic) [Compound 6, N-{[4-(cyclohex-1-en-1-yl)phenyl]methyl}-N-cyclopropyl-1-(3-{[2-methyl-1-oxo-1-(piperazin-1-yl)propan-2-yl]oxy}phenyl)-5-phenylpiperidine-3-carboxamide]
10 to 50	10 to 50	> 10	10 to 50	–	–	CC(C)(Oc1cccc(N2CC(C(=O)N(Cc3ccc(-c4cn[nH]c4)cc3)C3CC3)CC(C3CCCCC3)C2)c1)C(=O)N1CCNCC1 (centres unmarked) [Compound 1, 5-cyclohexyl-N-cyclopropyl-1-(3-{[2-methyl-1-oxo-1-(piperazin-1-yl)propan-2-yl]oxy}phenyl)-N-{[4-(1H-pyrazol-4-yl)phenyl]methyl}piperidine-3-carboxamide]
10 to 20	10 to 50	> 10	10 to 50	–	–	CC(C)(Oc1cccc(N2CC(C(=O)N(Cc3ccc(-c4cn[nH]c4)cc3)C3CC3)CC(c3ccccc3)C2)c1)C(=O)N1CCNCC1 (centres unmarked) [Compound 2, N-cyclopropyl-1-(3-{[2-methyl-1-oxo-1-(piperazin-1-yl)propan-2-yl]oxy}phenyl)-5-phenyl-N-{[4-(1H-pyrazol-4-yl)phenyl]methyl}piperidine-3-carboxamide]
10 to 50	10 to 20	–	10 to 50	> 10	–	CC(C)(Oc1cccc(N2CCC[C@@H](C(=O)N(Cc3ccc(-c4c[nH]c5ncccc45)cc3)C3CC3)C2)c1Cl)C(=O)N1CCNCC1 [Compound 8, (3R)-1-(2-chloro-3-{[2-methyl-1-oxo-1-(piperazin-1-yl)propan-2-yl]oxy}phenyl)-N-cyclopropyl-N-[(4-{1H-pyrrolo[2,3-b]pyridin-3-yl}phenyl)methyl]piperidine-3-carboxamide]
10 to 50	10 to 50	–	10 to 20	> 10	–	CC(C)(Oc1ccc(Cl)c(N2CCC[C@@H](C(=O)N(Cc3ccc(-c4cn[nH]c4)cc3)C3CC3)C2)c1)C(=O)N1CCNCC1 [Compound 9]
10 to 20	10 to 20	–	2.7	2.7	–	CC(C)(Oc1ccc(Cl)c(N2CCC[C@@H](C(=O)N(Cc3ccc(C4=CCCCC4)cc3)C3CC3)C2)c1)C(=O)N1CCNCC1 [Compound 10, (3R)-1-(2-chloro-5-{[2-methyl-1-oxo-1-(piperazin-1-yl)propan-2-yl]oxy}phenyl)-N-{[4-(cyclohex-1-en-1-yl)phenyl]methyl}-N-cyclopropylpiperidine-3-carboxamide]
10 to 20	10 to 20	–	2.44	2.44	–	CC(C)(Oc1ccc(Cl)c(N2CCC[C@@H](C(=O)N(Cc3ccc(-c4c[nH]c5ncccc45)cc3)C3CC3)C2)c1)C(=O)N1CCNCC1 [Compound 11, (3R)-1-(2-chloro-5-{[2-methyl-1-oxo-1-(piperazin-1-yl)propan-2-yl]oxy}phenyl)-N-cyclopropyl-N-[(4-{1H-pyrrolo[2,3-b]pyridin-3-yl}phenyl)methyl]piperidine-3-carboxamide]
10 to 20	10 to 50	–	10 to 20	> 10	–	CC(C)(Oc1cccc(N2CCC[C@@H](C(=O)N(Cc3ccc(-c4cn[nH]c4)c(Cl)c3)C3CC3)C2)c1)C(=O)N1CCNCC1 [Compound 12, (3R)-N-{[3-chloro-4-(1H-pyrazol-4-yl)phenyl]methyl}-N-cyclopropyl-1-(3-{[2-methyl-1-oxo-1-(piperazin-1-yl)propan-2-yl]oxy}phenyl)piperidine-3-carboxamide]
10 to 50	10 to 50	–	10 to 50	–	–	CC(C)(Oc1cccc(N2CCC[C@@H](C(=O)N(Cc3ccc(C4=CCCCC4)c(Cl)c3)C3CC3)C2)c1)C(=O)N1CCNCC1 [Compound 13, (3R)-N-{[3-chloro-4-(cyclohex-1-en-1-yl)phenyl]methyl}-N-cyclopropyl-1-(3-{[2-methyl-1-oxo-1-(piperazin-1-yl)propan-2-yl]oxy}phenyl)piperidine-3-carboxamide]
10 to 50	10 to 50	–	10 to 50	–	–	CC(C)(Oc1cccc(N2CCC[C@@H](C(=O)N(Cc3ccc(-c4ccccc4)c(Cl)c3)C3CC3)C2)c1)C(=O)N1CCNCC1 [Compound 14, (3R)-N-[(3-chloro-4-phenylphenyl)methyl]-N-cyclopropyl-1-(3-{[2-methyl-1-oxo-1-(piperazin-1-yl)propan-2-yl]oxy}phenyl)piperidine-3-carboxamide]
10 to 20	2.42	–	10 to 20	–	10 to 20	CC(C)(Nc1cccc(N2CCC[C@@H](C(=O)N(Cc3ccc(-c4cn[nH]c4)cc3)C3CC3)C2)c1)C(=O)N1CCNCC1 [Compound 15, (3R)-N-cyclopropyl-1-(3-{[2-methyl-1-oxo-1-(piperazin-1-yl)propan-2-yl]amino}phenyl)-N-{[4-(1H-pyrazol-4-yl)phenyl]methyl}piperidine-3-carboxamide]
